Test results as given in patent publication US9833497B2, “Human originated EGF domain proteins and use of the same” (CHENGDU SOURCEBIO LIMITED-LIABILITY COMPANY, priority 2013, dated 2017).

How the values were obtained:
Type in all cases: cell-based
[1] = test system: Aeromonas hydrophila; assay: MIC against Gram-negative bacteria: Aeromonas hydrophila; details: 5×10^5 CFU/mL
Summary of the method: (§1)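 Broth microdilution, LB medium, final inoculum 5×10^5 CFU/mL from McFarland 0.5 cultures. Recombinant human EGF domain proteins tested in two-fold steps, n=3. MIC: lowest concentration, no growth.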

[2] = test system: E. coli DH5α; assay: Antibacterial activity: MIC and growth curve against E. coli DH5α in 96-well plate; details: minimal inhibitory concentration against E. coli DH5α; 96-well plate, 5×10^5 CFU/mL, 37° C., judged after 8 h
Summary of the method: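 MIC taken as lowest protein level with no bacterial growth, tracked by A600 every 30 min during 37 °C, 175 rpm culture. Two-fold protein series 50-12.5 μg/mL final, triplicate wells, against 5×10^5 CFU/mL of LB-washed mid-log cells.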

[3] = test system: Moraxella catarrhalis; assay: MIC against Gram-negative bacteria: Moraxella catarrhalis; details: 5×10^5 CFU/mL
Summary of the method: as §1

[4] = test system: Pseudomonas aeruginosa; assay: MIC against Gram-negative bacteria: Pseudomonas aeruginosa; details: 5×10^5 CFU/mL
Summary of the method: as §1

[5] = test system: Proteus mirabilis; assay: MIC against Gram-negative bacteria: Proteus mirabilis; details: 5×10^5 CFU/mL
Summary of the method: as §1

[6] = test system: Serratia marcescens; assay: MIC against Gram-negative bacteria: Serratia marcescens; details: 5×10^5 CFU/mL
Summary of the method: as §1

[7] = test system: Klebsiella pneumonia; assay: MIC against Gram-negative bacteria: Klebsiella pneumonia; details: 5×10^5 CFU/mL
Summary of the method: as §1

[8] = test system: Proteus vulgaris; assay: MIC against Gram-negative bacteria: Proteus vulgaris; details: 5×10^5 CFU/mL
Summary of the method: as §1

[9] = test system: Citrobacter diversus; assay: MIC against Gram-negative bacteria: Citrobacter diversus; details: 5×10^5 CFU/mL
Summary of the method: as §1

[10] = test system: Enterobacter cloacae; assay: MIC against Gram-negative bacteria: Enterobacter cloacae; details: 5×10^5 CFU/mL
Summary of the method: as §1

[11] = test system: E. coli BL21; assay: MIC against Gram-negative bacteria: E. coli BL21; details: 5×10^5 CFU/mL
Summary of the method: as §1

[12] = 10 h cultivation at 37° C., two-fold serial dilution

Substance: PRT697 (DVDECAQEPPPCGPGRCDNTAGSFHCACPAGFRSRGPGAPCQ; listed as Homo sapiens)
- MIC A. hydrophila ([1]; 96-well plate, 37° C., 10 h): 25 µg/mL
- MIC [2]: 25 µg/mL
- MIC M. catarrhalis ([3]; 96-well plate, 37° C., 10 h): 50 µg/mL
- MIC P. aeruginosa ([4]; 96-well plate, 37° C., 10 h): 50 µg/mL
- MIC P. mirabilis ([5]; 96-well plate, 37° C., 10 h): 12.5 µg/mL
- MIC S. marcescens ([6]; 96-well plate, 37° C., 10 h): 25 µg/mL
- MIC K. pneumonia ([7]; 96-well plate, 37° C., 10 h): 12.5 µg/mL
- MIC P. vulgaris ([8]; 96-well plate, 37° C., 10 h): 25 µg/mL
- MIC C. diversus ([9]; 96-well plate, 37° C., 10 h): 12.5 µg/mL
- MIC E. cloacae ([10]; 96-well plate, 37° C., 10 h): 50 µg/mL
- MIC E. coli BL21 ([11]; 96-well plate, 37° C., 10 h): 25 µg/mL

Substance: PRT668 (DINECRHPGTCPDGRCVNSPGSYTCLACEEGYRGQSGSCV; listed as Homo sapiens)
- MIC A. hydrophila ([1]; 96-well plate, 37° C., 10 h): 50 µg/mL
- MIC [2]: 12.5 µg/mL
- MIC M. catarrhalis ([3]; 96-well plate, 37° C., 10 h): 25 µg/mL
- MIC P. aeruginosa ([4]; 96-well plate, 37° C., 10 h): 12.5 µg/mL
- MIC P. mirabilis ([5]; 96-well plate, 37° C., 10 h): 25 µg/mL
- MIC S. marcescens ([6]; 96-well plate, 37° C., 10 h): 100 µg/mL
- MIC K. pneumonia ([7]; 96-well plate, 37° C., 10 h): 50 µg/mL
- MIC P. vulgaris ([8]; 96-well plate, 37° C., 10 h): 50 µg/mL
- MIC C. diversus ([9]; 96-well plate, 37° C., 10 h): 100 µg/mL
- MIC E. cloacae ([10]; 96-well plate, 37° C., 10 h): 12.5 µg/mL
- MIC E. coli BL21 ([11]; 96-well plate, 37° C., 10 h): 50 µg/mL

Substance: PRT1242 (WGPECQQQCECVRGRCSAASGECTCPPGFRGARCE; listed as Homo sapiens)
- MIC against A. hydrophila ([1]; Aeromonas hydrophila, 96-well plate, 37° C., 10 h): 25 µg/mL
- MIC [2]: 25 µg/mL
- MIC against M. catarrhalis ([3]; Moraxella catarrhalis, 96-well plate, 37° C., 10 h): 25 µg/mL
- MIC against P. aeruginosa ([4]; Pseudomonas aeruginosa, 96-well plate, 37° C., 10 h): 25 µg/mL
- MIC against P. mirabilis ([5]; Proteus mirabilis, 96-well plate, 37° C., 10 h): 12.5 µg/mL
- MIC against S. marcescens ([6]; Serratia marcescens, 96-well plate, 37° C., 10 h): 50 µg/mL
- MIC against K. pneumonia ([7]; Klebsiella pneumonia, 96-well plate, 37° C., 10 h): 12.5 µg/mL
- MIC against P. vulgaris ([8]; Proteus vulgaris, 96-well plate, 37° C., 10 h): 25 µg/mL
- MIC against C. diversus ([9]; Citrobacter diversus, 96-well plate, 37° C., 10 h): 50 µg/mL
- MIC against E. cloacae ([10]; Enterobacter cloacae, 96-well plate, 37° C., 10 h): 25 µg/mL
- MIC against E. coli BL21 ([11]; E. coli BL21, 96-well plate, 37° C., 10 h): 50 µg/mL

Substance: PRT536 (CECHPTGATGPHCSPEGGQCPCQPNVIGRQCTRCATGHYGFPRCKP; listed as Homo sapiens)
- MIC against A. hydrophila ([1]; 96-well plate, 37° C., 10 h): 50 µg/mL
- MIC [2]: 12.5 µg/mL
- MIC against M. catarrhalis ([3]; 96-well plate, 37° C., 10 h): 50 µg/mL
- MIC against P. aeruginosa ([4]; 96-well plate, 37° C., 10 h): 12.5 µg/mL
- MIC against P. mirabilis ([5]; 96-well plate, 37° C., 10 h): 12.5 µg/mL
- MIC against S. marcescens ([6]; 96-well plate, 37° C., 10 h): 12.5 µg/mL
- MIC against K. pneumonia ([7]; 96-well plate, 37° C., 10 h): 50 µg/mL
- MIC against P. vulgaris ([8]; 96-well plate, 37° C., 10 h): 50 µg/mL
- MIC against C. diversus ([9]; 96-well plate, 37° C., 10 h): 12.5 µg/mL
- MIC against E. cloacae ([10]; 96-well plate, 37° C., 10 h): 12.5 µg/mL
- MIC against E. coli BL21 ([11]; 96-well plate, 37° C., 10 h): 50 µg/mL

Substance: PRT1061 (KRDPCLRKYKDFCIHGECKYVKELRAPSCICHPGYHGERCH; listed as Homo sapiens)
- MIC A. hydrophila [1, 12]: 12.5 µg/mL
- MIC [2]: 12.5 µg/mL
- MIC M. catarrhalis [3, 12]: 50 µg/mL
- MIC P. aeruginosa [4, 12]: 12.5 µg/mL
- MIC P. mirabilis [5, 12]: 25 µg/mL
- MIC S. marcescens [6, 12]: 25 µg/mL
- MIC K. pneumonia [7, 12]: 12.5 µg/mL
- MIC P. vulgaris [8, 12]: 12.5 µg/mL
- MIC C. diversus [9, 12]: 12.5 µg/mL
- MIC E. cloacae [10, 12]: 12.5 µg/mL
- MIC E. coli BL21 [11, 12]: 12.5 µg/mL

Substance: PRT846 (CNCSVVGSLNVNRCNQTTGQCECRPGYQGLHCETCKEGFYLNYTSGLCQP; listed as Homo sapiens)
- MIC (μg/mL) A. hydrophila ([1]; A. hydrophila, 10 h cultivation at 37° C.): 12.5 µg/mL
- MIC [2]: 25 µg/mL
- MIC (μg/mL) M. catarrhalis ([3]; M. catarrhalis, 10 h cultivation at 37° C.): 12.5 µg/mL
- MIC (μg/mL) P. aeruginosa ([4]; P. aeruginosa, 10 h cultivation at 37° C.): 25 µg/mL
- MIC (μg/mL) P. mirabilis ([5]; P. mirabilis, 10 h cultivation at 37° C.): 12.5 µg/mL
- MIC (μg/mL) S. marcescens ([6]; S. marcescens, 10 h cultivation at 37° C.): 12.5 µg/mL
- MIC (μg/mL) K. pneumonia ([7]; K. pneumonia, 10 h cultivation at 37° C.): 50 µg/mL
- MIC (μg/mL) P. vulgaris ([8]; P. vulgaris, 10 h cultivation at 37° C.): 12.5 µg/mL
- MIC (μg/mL) C. diversus ([9]; C. diversus, 10 h cultivation at 37° C.): 12.5 µg/mL
- MIC (μg/mL) E. cloacae ([10]; E. cloacae, 10 h cultivation at 37° C.): 12.5 µg/mL
- MIC (μg/mL) E. coli BL21 ([11]; E. coli BL21, 10 h cultivation at 37° C.): 12.5 µg/mL
